In PubChem BioAssay (NCI):
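Compound exposure: 48 hours, 5 concentrations, 96-well plates. TGI: concentration producing complete growth inhibition.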

Legend:
Test in all cases: DTP human tumour cell line panel, 48 h
786-0 renal = tested on: 786-0 renal
A549 NSCLC = tested on: A549 NSCLC
ACHN renal = tested on: ACHN renal
BT-549 breast = tested on: BT-549 breast
CAKI-1 renal = tested on: CAKI-1 renal
CCRF-CEM leukemia = tested on: CCRF-CEM leukemia
COLO 205 colon = tested on: COLO 205 colon
DU-145 prostate = tested on: DU-145 prostate
EKVX NSCLC = tested on: EKVX NSCLC
HCC-2998 colon = tested on: HCC-2998 colon
HCT-116 colon = tested on: HCT-116 colon
HCT-15 colon = tested on: HCT-15 colon
HL-60(TB) leukemia = tested on: HL-60(TB) leukemia
HOP-62 NSCLC = tested on: HOP-62 NSCLC
HOP-92 NSCLC = tested on: HOP-92 NSCLC
HS 578T breast = tested on: HS 578T breast
HT29 colon = tested on: HT29 colon
IGROV1 ovarian = tested on: IGROV1 ovarian
K-562 leukemia = tested on: K-562 leukemia
KM12 colon = tested on: KM12 colon
LOX IMVI melanoma = tested on: LOX IMVI melanoma
M14 melanoma = tested on: M14 melanoma
MALME-3M melanoma = tested on: MALME-3M melanoma
MCF7 breast = tested on: MCF7 breast
MDA-MB-231 breast = tested on: MDA-MB-231 breast
MDA-MB-435 = tested on: MDA-MB-435
MDA-N = tested on: MDA-N
MOLT-4 leukemia = tested on: MOLT-4 leukemia
NCI-H226 lung = tested on: NCI-H226 lung
NCI-H23 lung = tested on: NCI-H23 lung
NCI-H460 lung = tested on: NCI-H460 lung
NCI-H522 lung = tested on: NCI-H522 lung
NCI/ADR-RES ovarian = tested on: NCI/ADR-RES ovarian
OVCAR-3 ovarian = tested on: OVCAR-3 ovarian
OVCAR-4 ovarian = tested on: OVCAR-4 ovarian
OVCAR-5 ovarian = tested on: OVCAR-5 ovarian
OVCAR-8 ovarian = tested on: OVCAR-8 ovarian
PC-3 prostate = tested on: PC-3 prostate
RPMI-8226 leukemia = tested on: RPMI-8226 leukemia
RXF 393 renal = tested on: RXF 393 renal
SF-268 CNS = tested on: SF-268 CNS
SF-295 CNS = tested on: SF-295 CNS
SF-539 CNS = tested on: SF-539 CNS
SK-MEL-2 melanoma = tested on: SK-MEL-2 melanoma
SK-MEL-28 melanoma = tested on: SK-MEL-28 melanoma
SK-MEL-5 melanoma = tested on: SK-MEL-5 melanoma
SK-OV-3 ovarian = tested on: SK-OV-3 ovarian
SN12C renal = tested on: SN12C renal
SNB-19 CNS = tested on: SNB-19 CNS
SNB-75 CNS = tested on: SNB-75 CNS
SR leukemia = tested on: SR leukemia
SW-620 colon = tested on: SW-620 colon
T-47D breast = tested on: T-47D breast
TK-10 renal = tested on: TK-10 renal
U251 CNS = tested on: U251 CNS
UACC-257 melanoma = tested on: UACC-257 melanoma
UACC-62 melanoma = tested on: UACC-62 melanoma
UO-31 renal = tested on: UO-31 renal
A498 renal = tested on: A498 renal

In the case of COc1ccc(C[C@H]2COC(=O)[C@@H]2Cc2cccc(Br)c2)cc1OC, the TGI (786-0 renal) is reported as greater than 100 µM, the TGI (A549 NSCLC) is reported as greater than 100 µM and the TGI (ACHN renal) is reported as 84.9 µM. The TGI (BT-549 breast) was 61.2 µM, the TGI (CAKI-1 renal) was 30 µM and the TGI (CCRF-CEM leukemia) was 39.2 µM. The TGI (COLO 205 colon) was 28.7 µM, the TGI (DU-145 prostate) was greater than 100 µM and the TGI (EKVX NSCLC) was 97.1 µM. The TGI (HCC-2998 colon) was 66.4 µM, the TGI (HCT-116 colon) was greater than 100 µM and the TGI (HCT-15 colon) was greater than 100 µM. For the same molecule, the TGI (HL-60(TB) leukemia) was 38.6 µM, the TGI (HOP-62 NSCLC) was greater than 100 µM and the TGI (HOP-92 NSCLC) was 48.3 µM. The TGI (HS 578T breast) was greater than 100 µM, the TGI (HT29 colon) was 60.8 µM and the TGI (IGROV1 ovarian) was greater than 100 µM. It also gave a TGI (K-562 leukemia) greater than 100 µM, a TGI (KM12 colon) of 43.3 µM and a TGI (LOX IMVI melanoma) of 14.6 µM. For the same molecule, the TGI (M14 melanoma) was 27.8 µM, the TGI (MALME-3M melanoma) was 47.6 µM and the TGI (MCF7 breast) was 63.2 µM. For the same molecule, the TGI (MDA-MB-231 breast) was 64.9 µM, the TGI (MDA-MB-435) was 56.9 µM and the TGI (MDA-N) was 60.1 µM. For the same molecule, the TGI (MOLT-4 leukemia) was 82.3 µM, the TGI (NCI-H226 lung) was greater than 100 µM and the TGI (NCI-H23 lung) was greater than 100 µM. The TGI (NCI-H460 lung) was 67.2 µM, the TGI (NCI-H522 lung) was 47.5 µM and the TGI (NCI/ADR-RES ovarian) was greater than 100 µM. It also gave a TGI (OVCAR-3 ovarian) of 60.4 µM, a TGI (OVCAR-4 ovarian) of 58 µM and a TGI (OVCAR-5 ovarian) greater than 100 µM. The TGI (OVCAR-8 ovarian) was 69.6 µM, the TGI (PC-3 prostate) was 53.6 µM and the TGI (RPMI-8226 leukemia) was 56.1 µM. For the same molecule, the TGI (RXF 393 renal) was 77.6 µM, the TGI (SF-268 CNS) was greater than 100 µM and the TGI (SF-295 CNS) was greater than 100 µM. For the same molecule, the TGI (SF-539 CNS) was 41.4 µM, the TGI (SK-MEL-2 melanoma) was 73.5 µM and the TGI (SK-MEL-28 melanoma) was 68.4 µM. It also gave a TGI (SK-MEL-5 melanoma) of 30.5 µM, a TGI (SK-OV-3 ovarian) of 66.4 µM and a TGI (SN12C renal) greater than 100 µM. It also gave a TGI (SNB-19 CNS) greater than 100 µM, a TGI (SNB-75 CNS) of 55.5 µM and a TGI (SR leukemia) of 32.8 µM. For the same molecule, the TGI (SW-620 colon) was 83.3 µM, the TGI (T-47D breast) was greater than 100 µM and the TGI (TK-10 renal) was 82 µM. It also gave a TGI (U251 CNS) of 73.4 µM, a TGI (UACC-257 melanoma) of 56.2 µM and a TGI (UACC-62 melanoma) greater than 100 µM. It also gave a TGI (UO-31 renal) of 82.3 µM.

In the case of Cn1c2ccccc2c(=O)c2cccc(C(=O)NC(CS)C(=O)O)c21 (stereo not drawn), the TGI (786-0 renal) is reported as greater than 100 µM, the TGI (A498 renal) is reported as greater than 100 µM and the TGI (A549 NSCLC) is reported as greater than 100 µM. It also gave a TGI (ACHN renal) greater than 100 µM, a TGI (BT-549 breast) greater than 100 µM and a TGI (CAKI-1 renal) greater than 100 µM. It also gave a TGI (COLO 205 colon) greater than 100 µM, a TGI (DU-145 prostate) greater than 100 µM and a TGI (EKVX NSCLC) greater than 100 µM. It also gave a TGI (HCC-2998 colon) greater than 100 µM, a TGI (HCT-116 colon) greater than 100 µM and a TGI (HCT-15 colon) greater than 100 µM. The TGI (HL-60(TB) leukemia) was 38.9 µM, the TGI (HOP-62 NSCLC) was greater than 100 µM and the TGI (HS 578T breast) was greater than 100 µM. It also gave a TGI (HT29 colon) greater than 100 µM, a TGI (IGROV1 ovarian) greater than 100 µM and a TGI (K-562 leukemia) greater than 100 µM. For the same molecule, the TGI (KM12 colon) was greater than 100 µM, the TGI (LOX IMVI melanoma) was greater than 100 µM and the TGI (M14 melanoma) was greater than 100 µM. For the same molecule, the TGI (MALME-3M melanoma) was greater than 100 µM, the TGI (MCF7 breast) was greater than 100 µM and the TGI (MDA-MB-231 breast) was greater than 100 µM. It also gave a TGI (MDA-MB-435) greater than 100 µM, a TGI (MDA-N) greater than 100 µM and a TGI (MOLT-4 leukemia) greater than 100 µM. The TGI (NCI-H226 lung) was greater than 100 µM, the TGI (NCI-H23 lung) was greater than 100 µM and the TGI (NCI-H460 lung) was greater than 100 µM. The TGI (NCI/ADR-RES ovarian) was greater than 100 µM, the TGI (OVCAR-3 ovarian) was greater than 100 µM and the TGI (OVCAR-4 ovarian) was greater than 100 µM. For the same molecule, the TGI (OVCAR-5 ovarian) was greater than 100 µM, the TGI (OVCAR-8 ovarian) was greater than 100 µM and the TGI (PC-3 prostate) was greater than 100 µM. It also gave a TGI (RPMI-8226 leukemia) greater than 100 µM, a TGI (SF-268 CNS) greater than 100 µM and a TGI (SF-295 CNS) greater than 100 µM. It also gave a TGI (SF-539 CNS) greater than 100 µM, a TGI (SK-MEL-2 melanoma) greater than 100 µM and a TGI (SK-MEL-28 melanoma) greater than 100 µM. It also gave a TGI (SK-MEL-5 melanoma) greater than 100 µM, a TGI (SK-OV-3 ovarian) greater than 100 µM and a TGI (SN12C renal) greater than 100 µM. For the same molecule, the TGI (SNB-19 CNS) was greater than 100 µM, the TGI (SNB-75 CNS) was greater than 100 µM and the TGI (SR leukemia) was greater than 100 µM. For the same molecule, the TGI (SW-620 colon) was greater than 100 µM, the TGI (T-47D breast) was greater than 100 µM and the TGI (TK-10 renal) was greater than 100 µM. For the same molecule, the TGI (U251 CNS) was greater than 100 µM, the TGI (UACC-257 melanoma) was greater than 100 µM and the TGI (UACC-62 melanoma) was greater than 100 µM. For the same molecule, the TGI (UO-31 renal) was greater than 100 µM.
